TGI data for 18 molecules are collected here from PubChem BioAssay (NCI).

The structures appear in SMILES notation.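 Cells were grown in 96-well plates and exposed to each compound for 48 hours at five concentrations; endpoints were interpolated linearly between bracketing concentrations, or set to the highest concentration if not reached. TGI: concentration producing complete growth inhibition.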 Some results are limits rather than exact numbers.

Common to all, as to assay: growth of human tumour cells (NCI), 48 h
Test [1] has as its system SW-620 colon.
Test [2] has as its system PC-3 prostate.
Test [3] has as its system SN12C renal.
For test [4], the system named is HS 578T breast.
Test [5] relates to NCI-H460 lung.
For test [6], the system named is IGROV1 ovarian.
Test [7] concerns OVCAR-3 ovarian.
Test [8] deals with OVCAR-4 ovarian.
Test [9] relates to SR leukemia.
Test [10] has as its system MOLT-4 leukemia.
Test [11] concerns MDA-N.
The subject of test [12] is NCI/ADR-RES ovarian.
The test system of test [13] is K-562 leukemia.
Test [14] concerns LOX IMVI melanoma.
The test system of test [15] is U251 CNS.
Test [16] deals with CCRF-CEM leukemia.
Test [17] concerns NCI-H522 lung.
Test [18] has as its system SNB-75 CNS.
In test [19] the test system is BT-549 breast.

Turning to `Cc1ccc(-c2cc(-c3c(C)nn(C)c(=O)c3N)[nH]n2)cc1`, the TGI in [1], in [2], in test [3], in test [4], in test [5] and in test [6] was > 100 µM in each case. Also, the TGI in test [7], in test [8], in test [9], in test [10], in test [11] and in [12] was > 100 µM throughout. Further, the TGI in [13], in test [14], in test [15] and in test [16] was > 100 µM throughout.

For the molecule `O=C(c1ccccc1)c1c(CC(O)c2ccccc2)n(C(=O)c2ccccc2)c2ccccc12` (stereo not given), the TGI in [1] is > 100 µM; in [5] it was > 100 µM; in test [6], > 100 µM; in test [7], > 100 µM; in test [8] it was > 100 µM; in test [17] it was 64.7 µM. The TGI in [9] was 72.8 µM; in test [10], 54.4 µM; in test [18], 58.2 µM; in test [13] it was > 100 µM; in [15], > 100 µM; in test [16], > 100 µM.

On to `CC(=O)ON(C(C)=O)C1C(COC(c2ccccc2)(c2ccccc2)c2ccccc2)OC2OC3(CCCC3)OC21` (stereo not given), for which the TGI in [1], in [3], in test [5], in test [6], in test [7] and in [8] was > 100 µM throughout. For the same molecule, the TGI was 6.26 µM in test [17]; > 100 µM in test [9]; > 31 µM in test [10]; > 100 µM in [18]; > 100 µM in test [13]; 21.3 µM in test [14]. For the same molecule, the TGI in [15] and in test [16] was > 100 µM throughout.

For the molecule `N#Cc1c(N)c(C#N)c2c(c1-c1ccc(Cl)cc1)COc1ccccc1-2`, the TGI in test [1] is > 100 µM; in [2] it was 42.6 µM; in test [3], 31 µM; in test [5], > 100 µM; in test [6] it was 66.5 µM; in [7] it was 30.6 µM. Moreover, the TGI is 30 µM in [8]; 26.3 µM in [9]; 25 µM in [10]; 65.2 µM in [19]; 66.4 µM in test [11]; 68.5 µM in test [12]. The TGI in test [13] is 35.3 µM; in test [14], > 100 µM; in test [15], 32.7 µM; in [16] it was 33 µM.

Regarding `CC1=NN(C(=O)c2ccc(Cl)cc2)C(=O)/C1=C/c1ccco1`, the TGI in [1], in [3], in test [5], in [6], in test [7] and in [8] was > 100 µM each time. For the same molecule, the TGI in test [17], in test [10], in test [13], in test [14], in [15] and in [16] was > 100 µM each time.

With `O=C1/C(=C/c2cccs2)NC(=S)N1CN1CCCC(CO)C1` (stereo not given), the TGI in [1], in test [2], in test [3], in test [4], in test [6] and in test [7] was > 100 µM throughout. Moreover, the TGI in [8], in [9], in test [10], in test [11], in test [12] and in test [18] was > 100 µM each time. In addition, the TGI in test [13], in test [14], in test [15] and in test [16] was > 100 µM each time.

For `O=C(O)CC1CC=C[C@H]2c3cc4c(cc3C(=O)NC12)OCO4` (stereo not given in full), the TGI in [1], in test [3], in test [5], in [6], in [7] and in test [17] was > 75 µM in each case. Also, the TGI in [9], in test [10], in test [18], in [13], in test [14] and in [15] was > 75 µM in each case. In addition, in test [16], the TGI is > 75 µM.

As for `O=C1C2ON3c4ccccc4C(=O)C3(c3ccccc3)C2C(=O)N1c1ccccc1` (stereo not given), the TGI in test [1], in test [3], in test [6], in [8], in test [17] and in [9] was > 100 µM each time. Further, the TGI in [10], in test [18], in [13], in [15] and in test [16] was > 100 µM each time.

Regarding `Nc1c(N2CCCCC2)c(=O)nc2[nH]/c(=C\c3ccccc3)c(=O)n12`, the TGI in test [1], in [3], in test [4], in [5], in [6] and in test [8] was > 100 µM each time. In addition, the TGI in [17], in test [9], in test [10], in test [11], in test [12] and in test [18] was > 100 µM throughout. For the same molecule, the TGI in test [13], in [14], in test [15] and in [16] was > 100 µM throughout.

As to `CC(=O)N=C1N(/C=C2\C(=O)Oc3ccccc3C2=O)C(=O)/C(=C/c2ccccc2Cl)N1C`, the TGI is > 100 µM in [1]; > 100 µM in [2]; > 100 µM in [3]; 34.9 µM in [4]; > 100 µM in test [5]; > 100 µM in [6]. For the same molecule, the TGI in [8], in test [17], in test [9], in test [10], in test [11] and in test [12] was > 100 µM each time. In addition, the TGI in test [18], in [13], in test [14], in test [15] and in test [16] was > 100 µM throughout.

For `CC(O[Si](c1ccccc1)(c1ccccc1)C(C)(C)C)[C@H](NC(=O)OC(C)(C)C)C(=O)O` (stereo not given in full), the TGI was > 100 µM in test [1]; 56.8 µM in test [2]; > 100 µM in [4]; > 100 µM in test [5]; 50.2 µM in test [6]; > 100 µM in test [8]. In addition, the TGI in [9] was 90.2 µM; in [10] it was 46.1 µM; in test [11] it was 97.1 µM; in [12] it was > 100 µM; in test [18] it was > 100 µM; in test [13] it was > 100 µM. Further, the TGI in test [15] and in [16] was > 100 µM throughout.

For the molecule `CN(C)CCCNC(=O)c1cc(NC(=O)c2cc(NC(=O)[C@@H]3C[C@H]3C(=O)Nc3cc(C(=O)Nc4cc(C(=O)NCCCN(C)C)n(C)c4)n(C)c3)cn2C)cn1C`, the TGI in [1], in test [2], in test [3], in test [5], in test [6] and in test [8] was > 100 µM each time. The TGI in test [17], in test [9], in [10], in [19], in [12] and in [18] was > 100 µM each time. For the same molecule, the TGI in test [13], in test [14], in [15] and in [16] was > 100 µM in each case.

For the molecule `O=[N+]([O-])c1sc2ccc(Cl)cc2c1Nc1ccc(Cl)cc1`, the TGI in test [1], in test [2], in [3], in test [4], in test [5] and in test [6] was > 100 µM in each case. Also, the TGI in test [7], in test [8], in test [17], in [10], in test [19] and in test [12] was > 100 µM throughout. The TGI in [18], in test [13], in [14], in test [15] and in test [16] was > 100 µM throughout.

In the case of `COC(=O)c1c2c(cc3c1CC1(Cc4cc5c(cc4C1)CCC5)C3)CCC2`, the TGI in test [1], in test [2], in [4], in test [5], in [6] and in test [7] was > 100 µM throughout. In addition, the TGI in test [8], in [17], in [9], in test [10], in test [11] and in test [12] was > 100 µM each time. Further, the TGI in [18], in [13], in [14], in test [15] and in [16] was > 100 µM throughout.

`O=S(=O)(OI(O)CC(F)(F)F)C(F)(F)F`: the TGI in test [1], in test [2], in [3], in [5], in test [6] and in [7] was > 100 µM in each case. Besides, the TGI in test [8], in test [17], in test [9], in [10], in test [19] and in test [12] was > 100 µM throughout. The TGI in test [18], in test [13], in [14], in test [15] and in test [16] was > 100 µM throughout.

For `O=C(/C=C/c1ccc(O)c(O)c1)NCCc1ccc(-c2ccccc2)cc1`, the TGI in [1] is > 100 µM; in test [2], > 100 µM; in test [4], > 100 µM; in [5], > 100 µM; in test [7], 65.7 µM; in test [8], > 100 µM. Further, the TGI in test [17] was > 100 µM; in test [10], > 100 µM; in test [19], > 100 µM; in test [12] it was > 100 µM; in test [18], > 100 µM; in test [13], 80.4 µM. Also, the TGI in test [16] is > 100 µM.

In the case of `O=C(O)CCC(NC(=O)c1ccc(CNc2nc3ccccc3nc2C(=O)O)cc1)C(=O)O` (stereo not given), the TGI in test [1], in test [2], in test [3], in test [4], in test [6] and in test [7] was > 100 µM in each case. For the same molecule, the TGI in [8], in test [9], in test [10], in test [11], in [12] and in test [18] was > 100 µM throughout. In addition, the TGI in test [13], in test [14], in test [15] and in test [16] was > 100 µM each time.

For the molecule `Cn1c(=O)oc2cc(Br)ccc21`, the TGI in [1], in test [2], in test [3], in [4], in [5] and in test [6] was > 100 µM in each case. Also, the TGI in test [7], in [8], in [17], in [9], in [10] and in test [11] was > 100 µM throughout. The TGI in [12], in [18], in test [13], in test [14] and in test [16] was > 100 µM each time.
